Patent publication US20260193268A1, “TRICYCLIC PI3Ka INHIBITOR, PREPARATION METHOD THEREFOR, AND PHARMACEUTICAL USE THEREOF” (WIGEN BIOMEDICINE TECHNOLOGY (SHANGHAI) CO., LTD., priority 2022, published 2026)
Read-outs that look alike come from different tables or passages of the source.

Experiments:
[1] = system: HCC1954 cells (with PI3Kα H1047R mutation); assay: In vitro inhibition of HCC1954 cell proliferation (CellTiter-Lumi); type: cell-based; conditions: Homo sapiens, HCC1954, 144 h
Protocol: Assay for In Vitro Inhibition of HCC1954 Cell Proliferation by Compounds of the Present Disclosure
The growth of the cells was evaluated, and the IC50 for the inhibition of cell growth by the compounds was calculated.

[2] = system: MCF-7 cells (with PI3Kα E545K mutation); assay: In vitro inhibition of MCF-7 cell proliferation (CellTiter-Lumi); type: cell-based; conditions: Homo sapiens, MCF7, 144 h
Outline: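 MCF-7 (PI3Kα E545K) seeded at 2000 cells/well; serially diluted compounds added next day and exposed for 144 h. Cellular ATP read by CellTiter-Lumi luminescence; IC50 for growth inhibition calculated.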

[3] = HCC1954 cells, 144 h, CellTiter-Lumi, numeric values, read-out: Inhibitory activity against HCC1954 cells (IC50)
[4] = numeric values, read-out: Inhibitory activity against MCF-7 cells (IC50)
[5] = HCC1954 cells, 144 h, CellTiter-Lumi, class symbols, read-out: Inhibitory activity against HCC1954 cells (IC50), class symbols
[6] = class symbols, read-out: Inhibitory activity against MCF-7 cells (IC50), class symbols

SMILES	IC50 [1, 3] [nM]	IC50 [2, 4] [nM]	IC50 [1, 5] [nM]	IC50 [2, 6] [nM]	IC50 ([1]; read-out: Inhibitory activity against HCC1954 cells (IC50), class symbols) [nM]
C=CC(=O)N1CCc2sc(N3CC(N4CCN(c5ccc6c(c5)-c5nc(N7C(=O)OC[C@H]7C(F)F)cn5CCO6)CC4)C3)nc2C1 [Compound 155]	44	5.1			
C=CC(=O)N1CCC(C2CN(c3ccc(-c4ccc5c(c4)-c4nc(N6C(=O)OC[C@H]6C(F)F)cn4CCO5)cc3)C2)CC1 [Compound 198]			100 to 1000	50 to 100	
C=CC(=O)Nc1ncc(N2CC(N3CCN(c4ccc5c(c4)-c4nc(N6C(=O)OC[C@H]6C(F)F)cn4CCO5)CC3)C2)cc1C [Compound 163]	6.6	0.5			
C=CC(=O)N1CCC(N2CC(N3CCN(c4ccc5c(c4)-c4nc(N6C(=O)OC[C@H]6C(F)F)cn4CCO5)CC3)C2)CC1 [Compound 105]	620	23			
CNC(C)(C)C=C(C#N)C(=O)Nc1ccc(N2CC(N3CCN(c4ccc5c(c4)-c4nc(N6C(=O)OC[C@H]6C(F)F)cn4CCO5)CC3)C2)nc1 [Compound 243]			< 50	< 50	
C=CC(=O)N1CC(CN2CC(N3CCN(c4ccc5c(c4)-c4nc(N6C(=O)OC[C@H]6C(F)F)cn4CCO5)CC3)C2)C1 [Compound 91]	154	11			
CC(C)C=C(C#N)C(=O)Nc1ccc(N2CC(N3CCN(c4ccc5c(c4)-c4nc(N6C(=O)OC[C@H]6C(F)F)cn4CCO5)CC3)C2)cc1 [Compound 144]	55	22			
CCOP(=O)(OCC)OCNC(C)(C)C=C(C#N)C(=O)Nc1ccc(N2CC(N3CCN(c4ccc5c(c4)-c4nc(N6C(=O)OC[C@H]6C(F)F)cn4CCO5)CC3)C2)cc1 [Compound 331]				< 50	< 50
CN(C1CCC1)C(C)(C)C=C(C#N)C(=O)Nc1ccc(N2CC(N3CCN(c4ccc5c(c4)-c4nc(N6C(=O)OC[C@H]6C(F)F)cn4CCO5)CC3)C2)cc1 [Compound 156]	49	19			
CC(C)(C=C(C#N)C(=O)Nc1ccc(N2CC(N3CCN(c4ccc5c(c4)-c4nc(N6C(=O)OC[C@H]6C(F)F)cn4CCO5)CC3)C2)nc1)N1CCOCC1 [Compound 240]			< 50	< 50	
C=CC(=O)N1CCCc2cc(N3CC(N4CCN(c5ccc6c(c5)-c5nc(N7C(=O)OC[C@H]7C(F)F)cn5CCO6)CC4)C3)ccc21 [Compound 159]	28	1.8			
C=CC(=O)Nc1ccc(N2CC(N3CCN(c4ccc5c(c4)-c4nc(N6C(=O)OC[C@H]6C(F)F)cn4CCO5)CC3)C2)cc1OC(F)(F)F [Compound 279]	2.8	0.1			
CC(C)(C)C=C(C#N)C(=O)Nc1ccc(N2CC(N3CCN(c4ccc5c(c4)-c4nc(N6C(=O)OC[C@H]6C(F)F)cn4CCO5)CC3)C2)c(F)c1 [Compound 223]			< 50	< 50	
C=CC(=O)Nc1ccc2c(c1)CCN(C1CCN(c3ccc4c(c3)-c3nc(N5C(=O)OC[C@H]5C(F)F)cn3CCO4)CC1)C2 [Compound 204]			50 to 100	< 50	
C=CC(=O)N1CC[C@@H](CN2CC(CN3CCN(c4ccc5c(c4)-c4nc(N6C(=O)OC[C@H]6C(F)F)cn4CCO5)CC3)C2)C1 [Compound 37]	750	75			
CNC(C)(C)C=C(C#N)C(=O)Nc1cnc(N2CC(N3CCN(c4ccc5c(c4)-c4nc(N6C(=O)OC[C@H]6C(F)F)cn4CCO5)CC3)C2)nc1 [Compound 261]			< 50	< 50	
C=CC(=O)N1CCc2cc(N3CC(N4CCN(c5ccc6c(c5)-c5nc(N7C(=O)OC[C@H]7C(F)F)cn5CCO6)CC4)C3)c(F)cc21 [Compound 177]	2.2	0.1			
CC(C)(O)C=C(C#N)C(=O)Nc1ccc(N2CC(N3CCN(c4ccc5c(c4)-c4nc(N6C(=O)OC[C@H]6C(F)F)cn4CCO5)CC3)C2)nc1 [Compound 248]			< 50	< 50	
NC/C=C/C(=O)Nc1ccc(N2CC(N3CCN(c4ccc5c(c4)-c4nc(N6C(=O)OC[C@H]6C(F)F)cn4CCO5)CC3)C2)cc1 [Compound 170]	77	17			
CC(C)(C=C(C#N)C(=O)Nc1ccc(N2CC(N3CCN(c4ccc5c(c4)-c4nc(N6C(=O)OC[C@H]6C(F)F)cn4CCO5)CC3)C2)cn1)NC1COC1 [Compound 290]			< 50	< 50	
N#CC(=CC1CCCN1)C(=O)Nc1ccc(N2CC(N3CCN(c4ccc5c(c4)-c4nc(N6C(=O)OC[C@H]6C(F)F)cn4CCO5)CC3)C2)c(F)c1 (stereo partly drawn) [Compound 234]			< 50	< 50	
C=CC(=O)N1CCc2cc(N3CC(N4CCN(c5ccc6c(c5)-c5nc(N7C(=O)OC[C@H]7C(F)F)cn5CCO6)CC4)C3)ccc21 [Compound 134]	2.7	0.2			
CC(C)(C=C(C#N)C(=O)Nc1cnc(N2CC(N3CCN(c4ccc5c(c4)-c4nc(N6C(=O)OC[C@H]6C(F)F)cn4CCO5)CC3)C2)nc1)N1CCOCC1 [Compound 258]			< 50	< 50	
C=CC(=O)Nc1ccc(C2CN(CC#Cc3ccc4c(c3)-c3nc(N5C(=O)OC[C@H]5C(F)F)cn3CCO4)C2)cc1 [Compound 201]			50 to 100	< 50	

Now from value to molecule, other results behind:

IC50 [1, 3] [nM]	IC50 [2, 4] [nM]	IC50 [1, 5] [nM]	IC50 [2, 6] [nM]	SMILES	IC50 ([1]; read-out: Inhibitory activity against HCC1954 cells (IC50), class symbols) [nM]
		< 50	< 50	CC(C)(C)C=C(C#N)C(=O)Nc1ccc(N2CC(N3CCN(c4ccc5c(c4)-c4nc(N6C(=O)OC[C@H]6C(F)F)c(C6CC6)n4CCO5)CC3)C2)cc1 [Compound 322]	
		< 50	< 50	CN1CCN(C(C)(C)C=C(C#N)C(=O)Nc2ccc(N3CC(N4CCN(c5ccc6c(c5)-c5nc(N7C(=O)OC[C@H]7C(F)F)cn5CCO6)CC4)C3)cc2)CC1 [Compound 307]	
		< 50	< 50	CNC(C)(C)C=C(C#N)C(=O)Nc1ccc(N2CC(N3CCN(c4ccc5c(c4)-c4nc(N6C(=O)OC[C@H]6C(F)F)cn4CCO5)CC3)C2)cn1 [Compound 298]	
		< 50	< 50	CC(C)(C=C(C#N)C(=O)Nc1ccc(N2CC(N3CCN(c4ccc5c(c4)-c4nc(N6C(=O)OC[C@H]6C(F)F)cn4CCO5)CC3)C2)nc1)NC1(C)COC1 [Compound 386]	
		< 50	< 50	CNC(C)(C)C=C(C#N)C(=O)Nc1ncc(N2CC(N3CCN(c4ccc5c(c4)-c4nc(N6C(=O)OC[C@H]6C(F)F)cn4CCO5)CC3)C2)cn1 [Compound 300]	
		< 50	< 50	CC(C)(C)C=C(C#N)C(=O)Nc1ccc(N2CC(N3CCN(c4ccc5c(c4)-c4nc(N6C(=O)OC[C@H]6C(F)F)cn4CCO5)CC3)C2)cc1Cl [Compound 364]	
		< 50	< 50	CC(C)(N)C=C(C#N)C(=O)Nc1ccc(N2CC(N3CCN(c4ccc5c(c4)-c4nc(N6C(=O)OC[C@H]6C(F)F)cn4CCO5)CC3)C2)nn1 [Compound 297]	
		< 50	< 50	CC(C)(C=C(C#N)C(=O)Nc1ccc(N2CC(N3CCN(c4ccc5c(c4)-c4nc(N6C(=O)OC[C@H]6C(F)F)cn4CCO5)CC3)C2)c(F)c1)NC(=O)OC(C)(C)C [Compound 345]	
		< 50	< 50	COCCNC(C)(C)C=C(C#N)C(=O)Nc1ccc(N2CC(N3CCN(c4ccc5c(c4)-c4nc(N6C(=O)OC[C@H]6C(F)F)cn4CCO5)CC3)C2)cn1 [Compound 301]	
		< 50	< 50	CCC(C=C(C#N)C(=O)Nc1ccc(N2CC(N3CCN(c4ccc5c(c4)-c4nc(N6C(=O)OC[C@H]6C(F)F)cn4CCO5)CC3)C2)cc1)(CC)CC [Compound 389]	
		< 50	< 50	Cc1nc(-c2cn3c(n2)-c2cc(N4CCN(C5CN(c6ccc(NC(=O)C(C#N)=CC(C)(C)NC(=O)OC(C)(C)C)cc6Cl)C5)CC4)ccc2OCC3)n(C(C)C)n1 [Compound 373]	
		< 50	< 50	CNC(C)(C)C=C(C#N)C(=O)Nc1ccc(N2CC(N3CCN(c4ccc5c(c4)-c4nc(N6C(=O)OC[C@H]6C(F)F)cn4CCO5)CC3)C2)nn1 [Compound 299]	
		< 50	< 50	CCC(C=C(C#N)C(=O)Nc1ccc(N2CC(N3CCN(c4ccc5c(c4)-c4nc(N6C(=O)OC[C@H]6C(F)F)cn4CCO5)CC3)C2)cc1)(CC)NC1COC1 [Compound 387]	
		< 50	< 50	CC(C)(C)C=C(C#N)C(=O)Nc1ccc(N2CC(N3CCN(c4cc(F)c5c(c4)-c4nc(N6C(=O)OC[C@H]6C(F)F)cn4CCO5)CC3)C2)cc1 [Compound 316]	
		< 50	< 50	C=CC(=O)Nc1ccc(N2CC(N3CCN(c4ccc5c(c4)-c4nc(-c6nc(C)nn6C(C)C)cn4CCO5)CC3)C2)nc1 [Compound 379]	
